Experimental data: patent US20160130278A1 (TAISHO PHARMACEUTICAL CO., LTD, priority 2013, published 2016)
pIC50: −log10 of the molar value.

target: T1, human type 1 glycine transporter (GlyT1) (Homo sapiens, UniProt P48067); experiment: Glycine uptake inhibition experiment ([3H]glycine uptake); format: cell-based; settings: GlyT1
T1 construct: T98G cells (glioma cells) expressing human type 1 glycine transporter (GlyT1) were used
T1 sequence (P48067 1-706): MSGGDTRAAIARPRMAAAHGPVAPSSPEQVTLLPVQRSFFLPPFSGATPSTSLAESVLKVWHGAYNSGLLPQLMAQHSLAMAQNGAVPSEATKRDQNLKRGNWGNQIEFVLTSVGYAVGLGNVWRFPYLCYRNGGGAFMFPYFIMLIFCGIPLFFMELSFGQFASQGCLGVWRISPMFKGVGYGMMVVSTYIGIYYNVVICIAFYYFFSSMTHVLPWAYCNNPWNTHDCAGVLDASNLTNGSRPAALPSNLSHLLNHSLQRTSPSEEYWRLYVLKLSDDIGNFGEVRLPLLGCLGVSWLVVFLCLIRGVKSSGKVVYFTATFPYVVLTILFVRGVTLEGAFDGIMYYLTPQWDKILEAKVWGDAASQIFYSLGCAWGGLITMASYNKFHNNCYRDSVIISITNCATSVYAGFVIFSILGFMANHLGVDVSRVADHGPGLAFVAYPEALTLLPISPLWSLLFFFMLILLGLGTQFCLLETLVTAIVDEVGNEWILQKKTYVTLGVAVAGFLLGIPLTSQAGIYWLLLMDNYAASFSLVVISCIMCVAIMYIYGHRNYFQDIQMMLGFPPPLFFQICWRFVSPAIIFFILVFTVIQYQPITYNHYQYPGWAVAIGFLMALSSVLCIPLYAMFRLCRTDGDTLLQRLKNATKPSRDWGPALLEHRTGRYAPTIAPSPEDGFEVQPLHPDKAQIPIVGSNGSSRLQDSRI
In short: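 T98G glioma cells expressing human GlyT1 were pretreated 10 min with compound in HEPES buffer pH 7.4 (0.2% BSA), then incubated with compound plus 250 nM final [3H]glycine for 15 min at room temperature. Intracellular radioactivity was counted after NaOH lysis; 10 μM ALX5407 defined non-specific uptake. IC50 came from 10^−9–10^−5 M curves.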

Going from `Cc1nc2ccccn2c1C(=O)NC(c1cccc(F)c1Cl)[C@]1(O)CC[C@@H](F)CC1` (single isomer, unassigned) [Compound 261, N-[(2-chloro-3-fluorophenyl)(cis-4-fluoro-1-hydroxycyclohexyl)methyl]-2-methylimidazo[1,2-a]pyridine-3-carboxamide] to `Cc1ccc(-c2ncccn2)c(C(=O)NC(c2cccc(F)c2Cl)[C@]2(O)CC[C@@H](F)CC2)n1` (single isomer, unassigned) [Compound 284, N-[(2-chloro-3-fluorophenyl)(cis-4-fluoro-1-hydroxycyclohexyl)methyl]-6-methyl-3-(pyrimidin-2-yl)pyridine-2-carboxamide], the pIC50 rises from 5.13 to 5.72 (0.59 log units).

First: CC(C)n1cc(-c2cccc(C(NC(=O)c3nccc(C(F)(F)F)c3Cl)C3(O)CCC(F)(F)CC3)c2)cn1 (centres unmarked) [Compound 129, 3-chloro-N-[(4,4-difluoro-1-hydroxycyclohexyl){3-[1-(propan-2-yl)-1H-pyrazol-4-yl]phenyl}methyl]-4-(trifluoromethyl)pyridine-2-carboxamide]
Second: O=C(NC(c1cccc(F)c1)C1(O)CCC(F)(F)CC1)c1nccc(C(F)(F)F)c1Cl (single isomer, unassigned) [Compound 76, 3-chloro-N-[(4,4-difluoro-1-hydroxycyclohexyl)(3-fluorophenyl)methyl]-4-(trifluoromethyl)pyridine-2-carboxamide]
The pIC50 of the first is 0.40 log units higher: 7.00 for the first, 6.60 for the second.

Compared with `O=C(NC(c1cccc(F)c1Cl)[C@]1(O)CC[C@@H](F)CC1)c1ccccc1-n1cnnn1` (single isomer, unassigned) [Compound 270, N-[(2-chloro-3-fluorophenyl)(cis-4-fluoro-1-hydroxycyclohexyl)methyl]-2-(1H-tetrazol-1-yl)benzamide], `O=C(NC(c1cccc(F)c1Cl)[C@]1(O)CC[C@@H](F)CC1)c1ccc(C(F)(F)F)cc1-n1cnnn1` (single isomer, unassigned) [Compound 391, N-[(2-chloro-3-fluorophenyl)(cis-4-fluoro-1-hydroxycyclohexyl)methyl]-2-(1H-tetrazol-1-yl)-4-(trifluoromethyl)benzamide] is 1.95 log units higher in pIC50: 5.62 for the first, 7.57 for the second. The second is the more potent here.

First: O=C(NC(c1cccc(Cl)c1)C1(O)CCC(O)C1)c1nccc(C(F)(F)F)c1Cl (centres unmarked) [Compound 128, 3-chloro-N-[(3-chlorophenyl)(1,3-dihydroxycyclopentyl)methyl]-4-(trifluoromethyl)pyridine-2-carboxamide]
Second: O=C(N[C@@H](c1cccc(Br)c1)C1(O)CCCC1)c1nccc(C(F)(F)F)c1Cl [Compound 33, N-[(S)-(3-bromophenyl)(1-hydroxycyclopentyl)methyl]-3-chloro-4-(trifluoromethyl)pyridine-2-carboxamide]
The pIC50 of the first is 1.13 log units lower: 5.96 for the first, 7.09 for the second. The second is the more potent here.

First: CCn1cc(-c2cccc(C(NC(=O)c3cccc(C)c3Cl)C3(O)CCC(F)(F)CC3)c2)cn1 (single isomer, unassigned) [Compound 152, 2-chloro-N-{(4,4-difluoro-1-hydroxycyclohexyl)[3-(1-ethyl-1H-pyrazol-4-yl)phenyl]methyl}-3-methylbenzamide]
Second: CCn1cc(-c2cccc(C(NC(=O)c3cccc(OC)c3Cl)C3(O)CCC(F)(F)CC3)c2)cn1 (centres unmarked) [Compound 207, 2-chloro-N-{(4,4-difluoro-1-hydroxycyclohexyl)[3-(1-ethyl-1H-pyrazol-4-yl)phenyl]methyl}-3-methoxybenzamide]
The pIC50 of the first is 0.83 log units higher: 5.89 for the first, 5.06 for the second. The first is the more potent here.

Compared with `O=C(NC(c1cccc(F)c1Cl)[C@]1(O)CC[C@@H](F)CC1)c1nccc(C(F)(F)F)c1Cl` (single isomer, unassigned) [Compound 214, 3-chloro-N-[(2-chloro-3-fluorophenyl)(cis-4-fluoro-1-hydroxycyclohexyl)methyl]-4-(trifluoromethyl)pyridine-2-carboxamide], `O=C(NC(c1cccc(Cl)c1F)C1(O)CCC(F)CC1)c1nccc(C(F)(F)F)c1Cl` (single isomer, unassigned) [Compound 199, 3-chloro-N-[(3-chloro-2-fluorophenyl)(4-fluoro-1-hydroxycyclohexyl)methyl]-4-(trifluoromethyl)pyridine-2-carboxamide] is 0.74 log units higher in pIC50: 6.35 for the first, 7.09 for the second. The second is the more potent here.

Compared with `O=C(NC(c1ccccc1Cl)[C@]1(O)CC[C@@H](F)CC1)c1nccc(C(F)(F)F)c1Cl` (single isomer, unassigned) [Compound 197, 3-chloro-N-[(2-chlorophenyl)(cis-4-fluoro-1-hydroxycyclohexyl)methyl]-4-(trifluoromethyl)pyridine-2-carboxamide], `O=C(NC(c1cccnc1)[C@]1(O)CC[C@@H](F)CC1)c1nccc(C(F)(F)F)c1Cl` (single isomer, unassigned) [Compound 265, 3-chloro-N-[(cis-4-fluoro-1-hydroxycyclohexyl)(pyridin-3-yl)methyl]-4-(trifluoromethyl)pyridine-2-carboxamide] is 1.23 log units lower in pIC50: 7.28 for the first, 6.05 for the second.

Compared with `CCn1cc(-c2cccc(C(NC(=O)c3ccnc(Cl)c3Cl)C3(O)CCC(F)(F)CC3)c2)cn1` (centres unmarked) [Compound 173, 2,3-dichloro-N-{(4,4-difluoro-1-hydroxycyclohexyl)[3-(1-ethyl-1H-pyrazol-4-yl)phenyl]methyl}pyridine-4-carboxamide], `COc1cccc(C(NC(=O)c2nccc(C(F)(F)F)c2Cl)C2(O)CCCC2)c1` (single isomer, unassigned) [Compound 57, 3-chloro-N-[(1-hydroxycyclopentyl)(3-methoxyphenyl)methyl]-4-(trifluoromethyl)pyridine-2-carboxamide] is 0.82 log units higher in pIC50: 6.00 for the first, 6.82 for the second. The second is the more potent here.

Compared with `O=C(NC(c1ccccc1Cl)[C@]1(O)CC[C@@H](F)CC1)c1ccc(C(F)(F)F)nc1Cl` (single isomer, unassigned) [Compound 368, 2-chloro-N-[(2-chlorophenyl)(cis-4-fluoro-1-hydroxycyclohexyl)methyl]-6-(trifluoromethyl)pyridine-3-carboxamide], `O=C(NC(c1cc(Cl)ccn1)[C@]1(O)CC[C@@H](F)CC1)c1ccc(C(F)(F)F)nc1Cl` (single isomer, unassigned) [Compound 335, 2-chloro-N-[(4-chloropyridin-2-yl)(cis-4-fluoro-1-hydroxycyclohexyl)methyl]-6-(trifluoromethyl)pyridine-3-carboxamide] is 0.45 log units higher in pIC50: 6.12 for the first, 6.57 for the second.

Compared with `O=C(NC(c1cccc(F)c1Cl)[C@]1(O)CC[C@@H](F)CC1)c1ccc(Cl)nc1-n1nccn1` (single isomer, unassigned) [Compound 370, 6-chloro-N-[(2-chloro-3-fluorophenyl)(cis-4-fluoro-1-hydroxycyclohexyl)methyl]-2-(2H-1,2,3-triazol-2-yl)pyridine-3-carboxamide], `O=C(NC(c1cccc(F)c1Cl)[C@]1(O)CC[C@@H](F)CC1)c1cc(-n2ccnn2)ccc1Cl` (single isomer, unassigned) [Compound 337, 2-chloro-N-[(2-chloro-3-fluorophenyl)(cis-4-fluoro-1-hydroxycyclohexyl)methyl]-5-(1H-1,2,3-triazol-1-yl)benzamide] is 0.20 log units higher in pIC50: 5.52 for the first, 5.72 for the second. The second is the more potent here.

First: O=C(NC(c1cccc(F)c1)C1(O)CCCCC1)c1nccc(C(F)(F)F)c1Cl (single isomer, unassigned) [Compound 68, 3-chloro-N-[(3-fluorophenyl)(1-hydroxycyclohexyl)methyl]-4-(trifluoromethyl)pyridine-2-carboxamide]
Second: O=C(N[C@H](c1cccc(Br)c1)C1(O)CCCC1)c1nccc(C(F)(F)F)c1Cl [Compound 34, N-[(R)-(3-bromophenyl)(1-hydroxycyclopentyl)methyl]-3-chloro-4-(trifluoromethyl)pyridine-2-carboxamide]
The pIC50 of the first is 0.41 log units lower: 5.59 for the first, 6.00 for the second.

Compared with `O=C(NC(c1cc(Cl)ccc1Cl)C1(O)CCCC1)c1nccc(C(F)(F)F)c1Cl` (single isomer, unassigned) [Compound 114, 3-chloro-N-[(2,5-dichlorophenyl)(1-hydroxycyclopentyl)methyl]-4-(trifluoromethyl)pyridine-2-carboxamide], `O=C(NC(c1cccc(F)n1)[C@]1(O)CC[C@@H](F)CC1)c1nccc(C(F)(F)F)c1Cl` (single isomer, unassigned) [Compound 329, 3-chloro-N-[(cis-4-fluoro-1-hydroxycyclohexyl)(6-fluoropyridin-2-yl)methyl]-4-(trifluoromethyl)pyridine-2-carboxamide] is 0.34 log units lower in pIC50: 7.19 for the first, 6.85 for the second. The first is the more potent here.

Compared with `O=C(NC(c1cccc(F)c1Cl)[C@]1(O)CC[C@@H](F)CC1)c1nccc(C(F)F)c1Cl` (single isomer, unassigned) [Compound 241, 3-chloro-N-[(2-chloro-3-fluorophenyl)(cis-4-fluoro-1-hydroxycyclohexyl)methyl]-4-(difluoromethyl)pyridine-2-carboxamide], `Cn1nc2c(c1C(=O)NC(c1cccc(F)c1Cl)[C@]1(O)CC[C@@H](F)CC1)CCCC2` (single isomer, unassigned) [Compound 260, N-[(2-chloro-3-fluorophenyl)(cis-4-fluoro-1-hydroxycyclohexyl)methyl]-2-methyl-4,5,6,7-tetrahydro-2H-indazol-3-carboxamide] is 1.19 log units lower in pIC50: 6.96 for the first, 5.77 for the second. The first is the more potent here.
